According to US20090124619A1, “NOVEL COMPOUNDS” (priority 2005, published 2009):

How the values were obtained:
TRPV4 = target: T1, TRPV4 (Homo sapiens, UniProt Q9HBA0); experiment: FLIPR assay using TRPV4 expressing HEK cells; type: cell-based; conditions: FLIPR method; pEC50 = −log10(EC50 μM)
T1 construct: expressed in transfected cells; host or cells: HEK cells
Description: Other techniques used to measure TRPV4 channel receptor activation in chondrocytes include, but are not limited to: FLIPR assay, measuring a compound's capability to reduce the amount of ADAMTSs produced and/or released in response to a catabolic stimulus by a cell comprising a TRPV4 channel receptor; measuring a compound's capability to reduce the amount of MMPs produced and/or released in response to a catabolic stimulus by a cell comprising a TRPV4 channel receptor; measuring a compound's capability to effect the amount of nitric oxide (NO) produced in response to a catabolic stimulus by a cell comprising a TRPV4 channel receptor; and measuring a compound's capability to attenuate the inhibition of matrix synthesis in response to a catabolic stimulus by a cell comprising a TRPV4 channel receptor.
(§1) All exemplary compounds of the present invention were assessed using at least one of the biological assays presented above. Compounds presented in the Examples had EC50 values of about 0.01 μM to 30 μM as measured by Flex Station using bovine articular chondrocytes and pEC50 values between about 5.0 to about 7.5 as measured by FLIPR assay using TRPV4 expressing HEK cells.

TRPV4 channel receptors = target: T2, TRPV4 channel receptors (Bos taurus, UniProt A0A8F4X677); experiment: Ca2+ influx, Fura-2 fluorescence on FlexStation in bovine articular chondrocytes; type: cell-based
T2 construct: obtained using this method in bovine articular chondrocytes; endogenous in cells; host or cells: bovine articular chondrocytes (primary)
Description: Ca^2+ influx mediated through TRPV4 channel receptors can be measured using articular chondrocytes from such species as, but not limited to, human, rat, canine, rabbit, monkey, and bovine, using standard techniques in the art such as, but not limited to, Fura-2 (Invitrogen/Molecular Probes, Eugene, Oreg.) fluorescence using a FlexStation (manufactured by Molecular Devices, Sunnyvale, Calif.). Table 1 lists biological data for several representative compounds obtained using this method in bovine articular chondrocytes.
as §1

T1 sequence (Q9HBA0 whole entry): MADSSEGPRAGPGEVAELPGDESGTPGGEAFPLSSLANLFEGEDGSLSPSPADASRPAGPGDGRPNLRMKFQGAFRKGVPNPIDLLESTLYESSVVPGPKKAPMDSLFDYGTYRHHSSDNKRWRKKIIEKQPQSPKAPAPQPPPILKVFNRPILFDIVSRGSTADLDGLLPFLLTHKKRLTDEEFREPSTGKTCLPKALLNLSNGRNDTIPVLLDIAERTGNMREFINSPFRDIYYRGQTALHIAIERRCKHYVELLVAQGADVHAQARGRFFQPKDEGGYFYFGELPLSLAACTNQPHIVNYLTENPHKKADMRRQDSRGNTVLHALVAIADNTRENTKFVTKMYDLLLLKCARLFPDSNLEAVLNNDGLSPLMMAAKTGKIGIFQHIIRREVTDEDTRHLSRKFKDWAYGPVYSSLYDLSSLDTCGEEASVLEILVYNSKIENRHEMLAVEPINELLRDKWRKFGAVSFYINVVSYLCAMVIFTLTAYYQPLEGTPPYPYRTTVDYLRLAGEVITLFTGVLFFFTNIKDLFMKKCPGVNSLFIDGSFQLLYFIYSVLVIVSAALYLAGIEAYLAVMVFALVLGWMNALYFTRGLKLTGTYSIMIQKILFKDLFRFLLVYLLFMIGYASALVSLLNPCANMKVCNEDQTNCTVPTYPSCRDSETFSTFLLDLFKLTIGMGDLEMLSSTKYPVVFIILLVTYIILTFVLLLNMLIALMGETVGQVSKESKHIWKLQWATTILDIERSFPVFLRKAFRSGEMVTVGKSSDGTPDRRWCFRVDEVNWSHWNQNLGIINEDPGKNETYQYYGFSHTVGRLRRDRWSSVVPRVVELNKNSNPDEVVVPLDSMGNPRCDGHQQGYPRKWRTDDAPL
T2 sequence (A0A8F4X677 1-871): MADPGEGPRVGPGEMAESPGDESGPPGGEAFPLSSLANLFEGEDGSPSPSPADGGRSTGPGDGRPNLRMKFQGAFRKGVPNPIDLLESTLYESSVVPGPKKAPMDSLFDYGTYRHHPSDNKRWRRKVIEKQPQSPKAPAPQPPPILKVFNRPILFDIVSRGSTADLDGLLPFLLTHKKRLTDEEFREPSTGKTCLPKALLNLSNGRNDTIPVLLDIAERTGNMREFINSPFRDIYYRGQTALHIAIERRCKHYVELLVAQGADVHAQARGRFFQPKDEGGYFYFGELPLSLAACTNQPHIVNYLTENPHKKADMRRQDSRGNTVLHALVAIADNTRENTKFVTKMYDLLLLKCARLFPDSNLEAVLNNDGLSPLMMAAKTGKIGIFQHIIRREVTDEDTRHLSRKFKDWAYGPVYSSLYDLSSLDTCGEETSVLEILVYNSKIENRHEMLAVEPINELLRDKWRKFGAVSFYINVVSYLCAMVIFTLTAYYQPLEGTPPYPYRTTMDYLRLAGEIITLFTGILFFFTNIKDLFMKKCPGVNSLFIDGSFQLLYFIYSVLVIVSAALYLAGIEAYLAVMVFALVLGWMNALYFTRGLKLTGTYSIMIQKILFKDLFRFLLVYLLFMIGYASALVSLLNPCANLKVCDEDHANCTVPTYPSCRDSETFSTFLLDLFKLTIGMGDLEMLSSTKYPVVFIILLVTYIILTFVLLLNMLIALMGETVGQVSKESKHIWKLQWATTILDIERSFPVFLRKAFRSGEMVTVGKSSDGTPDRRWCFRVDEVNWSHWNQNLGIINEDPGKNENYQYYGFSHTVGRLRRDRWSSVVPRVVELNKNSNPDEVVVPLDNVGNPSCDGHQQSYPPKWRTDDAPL

| Structure (SMILES) | EC50 (TRPV4) | EC50 (TRPV4 channel receptors) |
| --- | --- | --- |
| CC(C)C[C@H](NC(=O)c1cc2ccccc2s1)C(=O)NCC1CN(S(=O)(=O)c2ccc(Cl)cc2Cl)CCO1 (stereo partly drawn) [Example 14, N-((1S)-1-{[({4-[(2,4-dichlorophenyl)sulfonyl]-2-morpholinyl}methyl)amino]carbonyl}-3-methylbutyl)-1-benzothiophene-2-carboxamide] | ≤ 0.1 µM |  |
| CC[C@H](C)[C@H](NC(=O)c1cc2ccccc2s1)C(=O)NCC1CN(S(=O)(=O)c2ccccc2C#N)CCO1 (stereo partly drawn) [Example 18, N-((1S,2S)-1-{[({4-[(2-cyanophenyl)sulfonyl]-2-morpholinyl}methyl)amino]carbonyl}-2-methylbutyl)-1-benzothiophene-2-carboxamide] |  | > 900 nM |
| CC(C)C[C@H](NC(=O)c1cc2ccccc2s1)C(=O)NC[C@@H]1CN(S(=O)(=O)c2ccccc2C#N)CCO1 [Example 21, N-((1S)-1-{[({(2R)-4-[(2-cyanophenyl)sulfonyl]-2-morpholinyl}methyl)amino]carbonyl}-3-methylbutyl)-1-benzothiophene-2-carboxamide] |  | 1 to 160 nM |

The remaining lines, values ahead:

| EC50 (TRPV4) | EC50 (TRPV4 channel receptors) | Structure (SMILES) |
| --- | --- | --- |
|  | 160 to 900 nM | CC(C)C[C@H](NC(=O)c1cc2ccccc2s1)C(=O)NC[C@H]1CN(S(=O)(=O)c2ccccc2C#N)CCO1 [Example 24, N-((1S)-1-{[({(2S)-4-[(2-cyanophenyl)sulfonyl]-2-morpholinyl}methyl)amino]carbonyl}-3-methylbutyl)-1-benzothiophene-2-carboxamide] |
| 0.1 to 1.12 µM |  | CC(C)[C@H](NC(=O)CCC1CCCC1)C(=O)NCC1CN(S(=O)(=O)c2ccccc2C#N)CCO1 (stereo partly drawn) [Example 44, N1-({4-[(2-cyanophenyl)sulfonyl]-2-morpholinyl}methyl)-N2-(3-cyclopentylpropanoyl)-L-valinamide] |
| 1.12 to 10 µM |  | O=C(CCC1CCCC1)N[C@H](C(=O)NCC1CN(S(=O)(=O)c2ccc(Cl)cc2Cl)CCO1)c1ccccc1 (stereo partly drawn) [Example 60, 3-cyclopentyl-N-{(1S)-2-[({4-[(2,4-dichlorophenyl)sulfonyl]-2-morpholinyl}methyl)amino]-2-oxo-1-phenylethyl}propanamide] |
